Test results as given in patent publication US10266496B2, “Carboxy substituted (hetero) aromatic ring derivatives and preparation method and uses thereof” (SUNSHINE LAKE PHARMA CO., LTD., priority 2015, dated 2019).
Read-outs that look alike come from different tables or passages of the source.

Experiments:
hURAT1 = hURAT1 (Homo sapiens (Human), UniProt Q96S37); assay: URAT1 (urate anion transporter) inhibition activity assay: [8-14C] uric acid absorption inhibition in HEK293T cell line stably expressing hURAT1; assay type: cell-based; details: [8-14C] uric acid uptake, HEK293T cells stably expressing hURAT1
From the text: Inhibition ratio (%)=[1−(^14C uptaken by drug well−^14C uptaken by negative well)/(^14C uptaken by buffer well−^14C uptaken by negative well)]×100;
Wherein, the negative well was unvaccinated cell line […].

[1] = Pharmacokinetic evaluation in SD rats; assay type: in vivo
Procedure: SD rats were fasted for 15 h overnight and grouped randomly according to body weight. The test compound was dissolved in a solution of 5% DMSO+5% Solutol+90% Saline. For intravenous administration of the test group, the animals were administered with a dose of 1 mg/kg; for oral administration of the test group, the animals were administered with a dose of 5 mg/kg. Then venous blood (approximately 0.2 mL) was collected at the time point of 0, 0.083 (only intravenous injection group), 0.25, 0.5, 1.0, 2.0, 5.0, 7.0 and 24 h after drug administration. The venous blood was placed in EDTAK2 anticoagulant tube and centrifuged at 11000 rpm for 2 min. Plasma was collected and stored at −20° C. or at −70° C. until LC/MS/MS analysis. The drug concentration in plasma was measured at each time point, and pharmacokinetic parameters were calculated according to the curve of drug concentration-time.

xanthine oxidase = xanthine oxidase (Homo sapiens (Human), UniProt P47989); assay: XO (Xanthine Oxidase) inhibition activity assay; assay type: biochemical; details: substrate xanthine, absorbance at 290 nm
Procedure: Then the diluted solution was added to a 384 well plate at 30 μL/well, and then to each well was added 30 μL of 21 mU/mL xanthine oxidase. […] After being incubated at room temperature for 5 min, absorbance at 290 nm was read by using PHERAstar FS microplate reader.

[2] = rat, plasma, SD rats, iv, 1 mg/kg
[3] = rat, plasma, SD rats, iv, 1 mg/kg, read-out: Cmax
[4] = rat, plasma, SD rats, po, 5 mg/kg

Sequence of hURAT1 (Q96S37 whole entry): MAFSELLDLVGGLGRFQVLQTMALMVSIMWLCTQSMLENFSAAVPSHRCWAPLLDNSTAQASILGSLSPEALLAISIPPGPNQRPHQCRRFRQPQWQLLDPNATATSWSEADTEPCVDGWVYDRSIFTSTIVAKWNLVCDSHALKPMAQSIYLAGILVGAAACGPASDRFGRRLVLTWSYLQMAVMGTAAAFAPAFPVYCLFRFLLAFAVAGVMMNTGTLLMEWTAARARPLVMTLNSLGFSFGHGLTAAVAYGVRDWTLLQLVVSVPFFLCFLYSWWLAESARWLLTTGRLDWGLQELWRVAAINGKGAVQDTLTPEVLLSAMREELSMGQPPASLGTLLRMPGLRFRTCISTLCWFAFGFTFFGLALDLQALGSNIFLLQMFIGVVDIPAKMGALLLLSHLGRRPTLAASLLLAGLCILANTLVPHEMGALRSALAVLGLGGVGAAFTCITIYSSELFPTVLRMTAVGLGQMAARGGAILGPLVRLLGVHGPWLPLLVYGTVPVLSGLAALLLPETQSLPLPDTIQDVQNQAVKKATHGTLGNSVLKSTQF
Sequence of xanthine oxidase (P47989 whole entry, species assumed): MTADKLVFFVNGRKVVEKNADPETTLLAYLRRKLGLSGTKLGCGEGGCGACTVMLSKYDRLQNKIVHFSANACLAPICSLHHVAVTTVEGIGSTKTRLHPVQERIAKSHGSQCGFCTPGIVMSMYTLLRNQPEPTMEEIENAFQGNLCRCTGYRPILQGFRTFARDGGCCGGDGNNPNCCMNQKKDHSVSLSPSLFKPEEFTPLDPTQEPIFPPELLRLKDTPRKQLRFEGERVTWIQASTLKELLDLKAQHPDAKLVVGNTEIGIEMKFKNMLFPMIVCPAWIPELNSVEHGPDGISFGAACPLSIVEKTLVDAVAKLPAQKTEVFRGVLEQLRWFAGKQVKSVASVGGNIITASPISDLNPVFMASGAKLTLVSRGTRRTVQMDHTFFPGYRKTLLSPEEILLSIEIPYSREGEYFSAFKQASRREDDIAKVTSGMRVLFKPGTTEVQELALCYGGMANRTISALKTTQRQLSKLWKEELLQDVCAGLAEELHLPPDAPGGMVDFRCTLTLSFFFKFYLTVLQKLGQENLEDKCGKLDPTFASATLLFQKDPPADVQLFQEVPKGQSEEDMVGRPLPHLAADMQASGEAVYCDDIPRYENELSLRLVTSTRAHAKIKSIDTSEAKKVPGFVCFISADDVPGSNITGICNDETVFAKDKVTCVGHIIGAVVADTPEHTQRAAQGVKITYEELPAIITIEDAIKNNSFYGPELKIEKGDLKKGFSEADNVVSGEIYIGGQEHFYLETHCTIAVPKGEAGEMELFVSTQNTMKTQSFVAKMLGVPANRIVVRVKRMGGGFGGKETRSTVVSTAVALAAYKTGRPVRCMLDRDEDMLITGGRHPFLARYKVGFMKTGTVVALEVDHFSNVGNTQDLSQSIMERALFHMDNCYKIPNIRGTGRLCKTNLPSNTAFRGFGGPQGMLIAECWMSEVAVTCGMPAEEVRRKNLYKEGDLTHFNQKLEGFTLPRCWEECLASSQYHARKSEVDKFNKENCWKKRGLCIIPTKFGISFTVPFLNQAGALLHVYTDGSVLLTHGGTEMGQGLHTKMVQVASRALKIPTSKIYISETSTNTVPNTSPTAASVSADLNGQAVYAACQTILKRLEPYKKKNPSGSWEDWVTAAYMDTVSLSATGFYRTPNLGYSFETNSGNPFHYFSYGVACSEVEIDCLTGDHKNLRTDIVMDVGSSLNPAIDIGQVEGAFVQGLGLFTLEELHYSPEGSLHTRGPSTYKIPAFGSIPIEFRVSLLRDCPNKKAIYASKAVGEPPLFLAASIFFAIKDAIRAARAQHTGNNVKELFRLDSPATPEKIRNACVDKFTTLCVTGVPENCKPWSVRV

SMILES	IC50 (hURAT1) [nM]	F ([1]; SD, rat, in vivo) [%]	AUClast ([1]; SD, rat, in vivo, iv, 1 mg/kg) [ng·h/mL]	Vd ([1]; SD, rat, in vivo, iv, 1 mg/kg) [L/kg]	AUClast ([1]; SD, rat, in vivo, po, 5 mg/kg) [ng·h/mL]	T1/2 ([1]; SD, rat, in vivo, po, 5 mg/kg) [h]	AUC(0-inf) [1, 2] [ng·h/mL]	MRT inf [1, 2] [h]	Tmax [1, 2] [h]	half-life [1, 2] [h]	Cmax [1, 3] [ng/mL]	AUC(0-inf) [1, 4] [ng·h/mL]	MRT inf [1, 4] [h]	Tmax [1, 4] [h]	IC50 (xanthine oxidase) [nM]	also measured
N#Cc1cc(-c2ccc(C(=O)O)c(O)c2)c2oc(F)cc2c1 [Example 29, 4-(5-cyano-2-fluorobenzofuran-7-yl)-2-hydroxybenzoic Acid]	38	145	10900	0.311	81700	2.84	11300	3.49	0.083	2.76	4540	82100	3.8	1.33	34.6	Cl ([1]; SD, rat, in vivo, iv, 1 mg/kg): 1.51 mL/min/kg
N#Cc1cc2c(c(-c3ccc(C(=O)O)c(O)c3)c1)OCC2 [Example 4, 4-(5-cyano-2,3-dihydrobenzofuran-7-yl)-2-hydroxybenzoic Acid]	499	–	–	–	–	–	–	–	–	–	–	–	–	–	60.4	–
N#Cc1cc(-c2ccc(C(=O)O)c(O)c2)c2ccccc2c1 [Example 2, 4-(3-cyanonaphthalene-1-yl)-2-hydroxybenzoic Acid]	–	–	–	–	–	–	2210	1.86	0.083	3.1	4380	8140	1.5	0.417	–	F ([1]; SD rats, po 5 mg/kg vs iv 1 mg/kg): 74.9%; AUC(0-t) [1, 2]: 2170 ng·h/mL; clearance ([1]; rat, plasma, SD rats, iv, 1 mg/kg, read-out: Cl): 7.59 mL/min/kg; Vd ([1]; rat, plasma, SD rats, iv, 1 mg/kg, read-out: Vss): 0.828 L/kg; AUC(0-t) [1, 4]: 8130 ng·h/mL; half-life [1, 4]: 3.86 h; Cmax ([1]; rat, plasma, SD rats, po, 5 mg/kg, read-out: Cmax): 6290 ng/mL
N#Cc1cc(-c2ccc(C(=O)O)c(O)c2)c2ccsc2c1 [Example 31, 4-(6-cyanobenzo[b]thiophen-4-yl)-2-hydroxybenzoic Acid]	45	–	–	–	–	–	–	–	–	–	–	–	–	–	57.8	–
N#Cc1cc(-c2ccc(C(=O)O)c(O)c2)c2occc2c1 [Example 1, 4-(5-cyanobenzofuran-7-yl)-2-hydroxybenzoic Acid]	140	131	6860	0.399	44400	3.45	7000	2.84	0.083	1.53	6030	45800	5.98	0.417	19.6	clearance ([1]; SD, rat, in vivo, iv, 1 mg/kg): 2.4 mL/min/kg
N#Cc1cc(-c2ccc(C(=O)O)c(O)c2)c2ccoc2c1 [Example 21, 4-(6-cyanobenzofuran-4-yl)-2-hydroxybenzoic Acid]	172	–	–	–	–	–	–	–	–	–	–	–	–	–	39.5	–
N#Cc1cc(-c2ccc(C(=O)O)c(O)c2)c2oc(Cl)cc2c1 [Example 40, 4-(2-chloro-5-cyanobenzofuran-7-yl)-2-hydroxybenzoic Acid]	30	94	5480	0.401	28100	3.05	6020	2.42	0.083	2.33	4090	28200	4.95	0.5	53.6	Cl ([1]; SD, rat, in vivo, iv, 1 mg/kg): 2.77 mL/min/kg; Cmax ([1]; SD, rat, in vivo, po, 5 mg/kg): 3700 ng/mL
N#Cc1cc(-c2ccc(C(=O)O)c(O)c2)c2[nH]ccc2c1 [Example 7, 4-(5-cyano-1H-indol-7-yl)-2-hydroxybenzoic Acid]	2880	–	–	–	–	–	–	–	–	–	–	–	–	–	10.9	–
